{"source": "patent US6124453A", "about": "“Macrolides” (Novartis AG, priority 1995, dated 2000)", "key": {"[1]": {"system": "spleen cells from Balb/c mice co-incubated with spleen cells from CBA mice", "assay": "Two-way MLR (murine mixed lymphocyte reaction)", "assay_type": "cell-based", "settings": "Mus musculus, 96 h, 4 days co-incubation, labelled precursor incorporation into DNA, read-out: IC50, proliferative response in two-way MLR", "procedure": "1. Proliferative Response Of Lymphocvtes to Allogenic Stimulation\nTwo-way MLR (Murine Mixed Lymphocyte Reaction)\nSpleen cells (2×10^5) from Balb/c mice (female, 8-10 weeks) are co-incubated for 4 days with 2×10^5 spleen cells from CBA mice (female, 8-10 weeks). The allogenic cells induce a proliferative response in the responder spleen cell population which is measured by labelled precursor incorporation into the DNA."}, "[2]": {"system": "LPS-stimulated Murine B-cells", "assay": "LPS-stimulated murine B-cell proliferation", "assay_type": "cell-based, CBA mice", "settings": "Mus musculus, 48 hours with 50 μg/ml LPS, labelled precursor incorporation into DNA, read-out: IC50, inhibition of B-cell proliferation", "procedure": "LPS-stimulated Murine B-cells\nSpleen cells (2×10^5) from CBA mice are incubated for 48 hours with 50 μg/ml LPS plus test compound. Proliferation is measured by labelled precursor incorporation into DNA."}, "[3]": {"assay": "Cytotoxic and cytostatic activity in vitro using the THP1 cell line (MTT)", "assay_type": "cell-based", "settings": "human, thp1 cells; after 24 h incubation, IFNγ 100 U/ml and LPS 5 μg/ml; read-out: IC50, cytotoxicity THP1 (MTT)", "procedure": "3. Cytotoxic and Cytostatic Activity in Vitro Using the THP1 Cell Line\nCytotoxicity is determined using the human monocytic cell line THP1 (5×10^4 cells/well) which are incubated in the presence of IFNγ (100 U/ml)and LPS (5 μg/ml) plus test compound (up to 10 μM) for 24 to 72 h at 37° C. Living cells are quantified using the colourimetric read-out MTT which measures mitochondrial dehydrogenase enzymatic activity in living cells (Mossman 1983). Macrolides of the invention, e.g. compounds of formula IX and their pharmaceutically acceptable salts, e.g. Sanglifehrins A, B, C and D, have IC50 s of about 1000-5000 nM after 24 h incubation in this assay."}, "[4]": {"system": "Tumour Necrosis Factor (TNF) α release by peripheral blood mononuclear cells", "assay": "TNF release by human peripheral blood mononuclear cells", "assay_type": "cell-based", "settings": "PBMC, IFNγ 100 U/ml and LPS 5 μg/ml, 3 h incubation, ELISA", "procedure": "4. TNF Release by Human Peripheral Blood Mononuclear Cells\nMononuclear cells are prepared from the peripheral blood of healthy volunteers using Ficoll-Hypaque density separation according to the method of Hansell et al. (1991). Cells (10^5 cells/well in 200 μl RPMI 10% FCS by volume) are incubated with serial dilutions of the test compounds for 30 min at 37° C. prior to the addition of stimulus. Interferon γ (100 U/ml) and LPS (5 μg/ml) are used as stimuli to induce Tumour Necrosis Factor (TNF) α release by peripheral blood mononuclear cells. After 3 h incubation, the cells are centrifuged (1200 rpm for 10 min) and the supernatants are collected. The amount of TNF present in the cell supernatants is determined using a commercially available enzyme-linked immunosorbent assay kit."}, "[5]": {"target": "human recombinant cyclophilin A (Homo sapiens, UniProt P62937)", "sequence (P62937 whole entry)": "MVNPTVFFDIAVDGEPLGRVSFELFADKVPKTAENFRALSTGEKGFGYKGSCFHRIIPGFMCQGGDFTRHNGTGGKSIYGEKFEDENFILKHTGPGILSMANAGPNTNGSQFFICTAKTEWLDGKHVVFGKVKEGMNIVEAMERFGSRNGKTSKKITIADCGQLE", "assay": "Cyclophilin binding assay (competitive ELISA / competitive binding test)", "settings": "competition with coated BSA-cyclosporin A", "from_the_text": "5. Cyclophilin Binding Assay\nA suitable cyclophilin binding assay is the competitive ELISA test described by Quesniaux in Eur. J. Immunol. 1987 17 1359-1365."}, "FK binding protein": {"target": "FK binding protein (Homo sapiens, UniProt P62942)", "sequence (P62942 whole entry)": "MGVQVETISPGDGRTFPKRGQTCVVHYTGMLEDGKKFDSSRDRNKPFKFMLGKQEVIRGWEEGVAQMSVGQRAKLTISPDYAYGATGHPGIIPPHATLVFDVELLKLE", "assay": "FK binding protein binding (standard test)", "settings": "standard tests"}, "calcineurin": {"system": "calcineurin", "assay": "Calcineurin activity (standard test)", "assay_type": "biochemical", "settings": "standard tests"}, "[6]": {"system": "Localised Graft-versus-Host (GvH) reaction", "assay": "Localised graft-versus-host (GvH) reaction in the rat", "assay_type": "in vivo", "settings": "dose of about 1 mg/kg s.c., 4 consecutive days, lymph node weight on day 7", "procedure": "6. Localised Graft-versus-Host (GvH) Reaction in the Rat\nSpleen cells (1×10^7) from 6 week old female Wistar/Furth (WF) rats are injected subcutaneously on day 0 into the left hind-paw of female (F344×WF)F1 rats weighing about 100 g. Animals are treated for 4 consecutive days and the popliteal lymph nodes are removed and weighed on day 7. The difference in weight between the two lymph nodes is taken as the parameter for evaluating the reaction."}, "DTH footpad swelling": {"system": "DTH footpad swelling", "assay": "DTH induced by SRBC-TH cells", "assay_type": "in vivo, C57 BL/6 mice", "settings": "doses of the order of 5 mg/kg s.c., footpad thickness after 24 hours", "procedure": "7. DTH Induced by SRBC-TH Cells\n50 μl of the SRBC cell suspension (diluted 1:1 v/v with PBS) is injected s.c. into the left hind footpad (to measure non specific increase in footpad swelling due to the injection procedure). Right and left hind footpad thickness is measured 24 hours later.\nThe percent increase in thickness of the right footpad over the left footpad (z) is calculated. Thickness of right footpad=x. thickness of left footpad=y; % specific increase=z"}, "heart allograft [7]": {"system": "heart allograft", "assay": "Mouse heart allotransplantation (BALB/c to C3H)", "assay_type": "in vivo", "settings": "doses of the order of 30 mg/kg/day, s.c. Alzet osmotic minipumps", "procedure": "(§1) 8. Rat/Mouse Heart Allotransplantation\n(§2) The in vivo efficacy of macrolides of the invention is assessed in rat and mouse heart allotransplantation using Alzet osmotic minipumps for s.c. administration."}, "heart allograft [8]": {"system": "heart allograft", "assay": "Rat heart allotransplantation (DA to Lewis)", "assay_type": "in vivo", "settings": "in combination with suboptimal doses of cyclosporin A", "procedure": "as §1, §2"}}, "data": [{"smiles": "CCC1CC(C)C2(NC1=O)OC(CC(O)C(C)CCC=CC=C(C)C1CC=CC=CC(O)C(C)C(O)C(CCC(C)=O)C(=O)NC(C(C)C)C(=O)NC(Cc3cccc(O)c3)C(=O)N3CCCC(N3)C(=O)O1)C(C)C=C2C", "note": "(stereo not drawn) [Sanglifehrin B]", "values": [{"measurement": "IC50", "setting": "[1]", "result": "0.03 to 0.2", "unit": "µM"}, {"measurement": "IC50", "setting": "[2]", "result": "40 to 100", "unit": "µM"}, {"measurement": "CC50 at 24 h", "setting": "[3]", "result": "1 to 5", "unit": "µM"}, {"measurement": "IC50", "setting": "[4]", "result": "0.2 to 1", "unit": "µM"}, {"measurement": "IC50", "setting": "[5]", "result": "0.01 to 0.1", "unit": "µM"}, {"measurement": "FK binding protein binding activity", "setting": "FK binding protein", "result": "do not have FK binding protein binding activity"}, {"measurement": "inhibition of calcineurin activity", "setting": "calcineurin", "result": "do not inhibit calcineurin activity"}, {"measurement": "inhibition of the GvH reaction", "setting": "[6]", "result": "up to 30%"}, {"measurement": "reduction of swelling of the DTH mouse", "setting": "DTH footpad swelling", "result": "up to 50%"}, {"measurement": "graft survival (in words), mouse heart allotransplantation", "setting": "heart allograft [7]", "result": "prolong graft survival"}, {"measurement": "graft survival (in words), rat heart allotransplantation", "setting": "heart allograft [8]", "result": "prolonged graft survival"}]}, {"smiles": "CCC1CC(C)C2(NC1=O)OC(CC(O)C(C)CCC=CC=C(C)C1CC=CC=CC(O)C(C)C3OC(C)(OC)CCC3C(=O)NC(C(C)C)C(=O)NC(Cc3cccc(O)c3)C(=O)N3CCCC(N3)C(=O)O1)C(C)C(O)C2C", "note": "(stereo not drawn) [Sanglifehrin C]", "values": [{"measurement": "IC50", "setting": "[1]", "result": "0.03 to 0.2", "unit": "µM"}, {"measurement": "IC50", "setting": "[2]", "result": "40 to 100", "unit": "µM"}, {"measurement": "CC50 at 24 h", "setting": "[3]", "result": "1 to 5", "unit": "µM"}, {"measurement": "IC50", "setting": "[4]", "result": "0.2 to 1", "unit": "µM"}, {"measurement": "IC50", "setting": "[5]", "result": "0.01 to 0.1", "unit": "µM"}, {"measurement": "FK binding protein binding activity", "setting": "FK binding protein", "result": "do not have FK binding protein binding activity"}, {"measurement": "inhibition of calcineurin activity", "setting": "calcineurin", "result": "do not inhibit calcineurin activity"}, {"measurement": "inhibition of the GvH reaction", "setting": "[6]", "result": "up to 30%"}, {"measurement": "reduction of swelling of the DTH mouse", "setting": "DTH footpad swelling", "result": "up to 50%"}, {"measurement": "graft survival (in words), mouse heart allotransplantation", "setting": "heart allograft [7]", "result": "prolong graft survival"}, {"measurement": "graft survival (in words), rat heart allotransplantation", "setting": "heart allograft [8]", "result": "prolonged graft survival"}]}, {"smiles": "CC[C@H]1C[C@H](C)[C@@]2(NC1=O)O[C@@H](C[C@H](O)[C@@H](C)CC/C=C/C=C(\\C)[C@@H]1C/C=C/C=C/[C@H](O)[C@H](C)[C@@H](O)[C@@H](CCC(C)=O)C(=O)N[C@@H](C(C)C)C(=O)N[C@@H](Cc3cccc(O)c3)C(=O)N3CCC[C@H](N3)C(=O)O1)[C@H](C)[C@H](O)[C@@H]2C", "note": "[Sanglifehrin A]", "values": [{"measurement": "IC50", "setting": "[1]", "result": "0.03 to 0.2", "unit": "µM"}, {"measurement": "IC50", "setting": "[2]", "result": "40 to 100", "unit": "µM"}, {"measurement": "CC50 at 24 h", "setting": "[3]", "result": "1 to 5", "unit": "µM"}, {"measurement": "IC50", "setting": "[4]", "result": "0.2 to 1", "unit": "µM"}, {"measurement": "FK binding protein binding activity", "setting": "FK binding protein", "result": "do not have FK binding protein binding activity"}, {"measurement": "reduction of swelling of the DTH mouse", "setting": "DTH footpad swelling", "result": "up to 50%"}, {"measurement": "graft survival (in words), mouse heart allotransplantation", "setting": "heart allograft [7]", "result": "prolong graft survival"}, {"measurement": "graft survival (in words), rat heart allotransplantation", "setting": "heart allograft [8]", "result": "prolonged graft survival"}]}]}
